Legend:
[1] = system: Demodex mites; assay: In vitro Demodex survival time assay; settings: in vitro assay (FIG. 3 and 4)
Description: FIG. 4 summarizes the activity of 10% chloroquine in water relative to a water control on activity against Demodex mites in an in vitro assay, with an LT50 of 31.6 hours for chloroquine compared to 44.8 hours for the water control, illustrating the inactivation effect of chloroquine on Demodex.
Example 4: In vitro efficacy and mite lifetimes: Relative efficacy of various formulations are evaluated with a Demodex survival time experiments. FIG. 3 tabulates Demodex survival time, expressed in terms of LT50 (time at which 50% of Demodex mites are killed) and/or average minutes to death for various active agents.

[2] = system: Demodex mites; settings: dichlorvos 1%, one patient; PCT Pub. No. WO 2015/017328; cited from earlier work

Compound	activity against Demodex mites [1]	remission of Papulopostular Rosacea (PPR) [2]
CCN(CC)CCCC(C)Nc1ccnc2cc(Cl)ccc12 (centres unmarked) [chloroquine]	has activity against Demodex mites	–
COP(=O)(OC)OC=C(Cl)Cl [dichlorvos]	–	complete and continued remission
